Source: patent EP4678644A1, “SUBSTITUTED DIHYDROTHIENOPYRIMIDINE COMPOUND, PREPARATION METHOD THEREFOR, AND USE THEREOF” (Shanghai Yidi Biotechnology Co., Ltd., priority 2023, dated 2024)

Legend:
PDE4B2 [1] = target: T1, PDE4B2 (Homo sapiens, UniProt Q07343); experiment: PDE4B2 enzyme experiment (AMP-glo, cAMP substrate); type: biochemical
T1 construct: expressed in transfected cells; host or cells: Flp-In-293 (Flpin-293-PDE4B2 [sic])

PDE4D2 = PDE4D2 (Homo sapiens, UniProt Q08499); experiment: PDE4D2 enzyme experiment (AMP-glo, cAMP substrate); type: biochemical; conditions: read-out: PDE4D2 IC50 Binding
Description: Inhibition rate % ^= (1 - (RLUpositive control - RLUcompound)/(RLUpositive control - RLUnegative control)) * 100.

PDE4B2 [2] = target: T1, PDE4B2; experiment: PDE4B2 cell experiment (cAMP, Eu-cAMP tracer / Ulight-anti-cAMP); type: cell-based; conditions: Flpin-293-PDE4B2 cells; for IC50: Foskolin

Sequence of PDE4D2 (Q08499 303-809 limits assumed): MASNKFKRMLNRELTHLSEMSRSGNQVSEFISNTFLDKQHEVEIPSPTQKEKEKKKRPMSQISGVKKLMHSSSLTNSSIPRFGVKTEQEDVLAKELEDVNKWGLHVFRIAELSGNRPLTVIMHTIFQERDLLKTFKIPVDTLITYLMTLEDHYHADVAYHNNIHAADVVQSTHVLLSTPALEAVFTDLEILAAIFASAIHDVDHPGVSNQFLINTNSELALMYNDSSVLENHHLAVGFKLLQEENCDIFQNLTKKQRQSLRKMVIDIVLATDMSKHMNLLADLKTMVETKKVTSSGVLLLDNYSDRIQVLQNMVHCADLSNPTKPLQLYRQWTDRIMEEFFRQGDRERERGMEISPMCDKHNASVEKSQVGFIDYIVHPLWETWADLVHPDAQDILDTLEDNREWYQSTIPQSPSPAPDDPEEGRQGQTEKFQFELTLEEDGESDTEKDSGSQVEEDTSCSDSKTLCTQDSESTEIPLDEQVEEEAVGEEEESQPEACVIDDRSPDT
T1 sequence (Q07343 1-564 isoform Q07343-2): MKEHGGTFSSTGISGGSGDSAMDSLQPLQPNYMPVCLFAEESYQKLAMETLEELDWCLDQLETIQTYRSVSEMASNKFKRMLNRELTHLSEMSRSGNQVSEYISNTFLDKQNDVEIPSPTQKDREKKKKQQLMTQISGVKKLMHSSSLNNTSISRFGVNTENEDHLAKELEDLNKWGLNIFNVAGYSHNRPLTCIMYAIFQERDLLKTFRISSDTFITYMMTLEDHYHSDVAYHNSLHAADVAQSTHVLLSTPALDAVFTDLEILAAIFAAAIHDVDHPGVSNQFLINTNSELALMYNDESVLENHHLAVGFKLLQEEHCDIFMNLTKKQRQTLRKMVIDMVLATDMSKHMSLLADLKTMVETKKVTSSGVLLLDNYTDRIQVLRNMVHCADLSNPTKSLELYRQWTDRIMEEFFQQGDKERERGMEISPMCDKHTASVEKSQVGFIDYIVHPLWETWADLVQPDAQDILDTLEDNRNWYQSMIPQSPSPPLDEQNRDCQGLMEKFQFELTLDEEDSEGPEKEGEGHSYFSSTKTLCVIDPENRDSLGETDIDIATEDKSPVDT

IC50 (PDE4B2 [1])	IC50 (PDE4D2)	inhibition at 0.001 µM (PDE4B2 [2]; 1 nM)	inhibition at 0.01 µM (PDE4B2 [2]; 10 nM)	inhibition at 0.1 µM (PDE4B2 [2]; 100 nM)	Cell Inhibition% @1 nM (PDE4B2 [2]; 1 nM)	Cell Inhibition% @10 nM (PDE4B2 [2]; 10 nM)	Cell Inhibition% @100 nM (PDE4B2 [2]; 100 nM)	IC50 (PDE4B2 [2])	Compound
0.596 nM	1.18 nM	17.1%	38.4%	70.1%					O=c1[nH]c2cc3c(cc2o1)CN(c1nc2c(c(NC4(CO)CCC4)n1)[S@+]([O-])CC2)CC3 [Compound 51, (R)-6-(4-((1-(hydroxymethyl)cyclobutyl)amino)-5-oxido-6,7-dihydrothieno[3,2-d]pyrimidin-2-yl)-5,6,7,8-tetrahydrooxazolo[4,5-g]isoquinolin-2(1H)-one]
0.344 nM	0.603 nM				14.02%	61.02%	94.24%		CS(=O)(=O)c1ccc2c(c1)CCN(c1nc3c(c(NC4(CO)CCC4)n1)[S+]([O-])CC3)C2 (centres unmarked) [Compound 93]
0.202 nM	0.705 nM				6.93%	39.59%	72.19%		O=C(O)Cc1ccc(Nc2nc(N3CCc4cc(Cl)ccc4C3)nc3c2[S@+]([O-])CC3)cc1 [Compound 129]
0.38 nM	0.92 nM							10.4 nM	[O-][S+]1CCc2nc(N3CCc4cc(Br)ccc4C3)nc(NC3(CO)CCC3)c21 (centres unmarked) [Compound 24]
0.366 nM	0.764 nM				19.08%	77.47%	99.87%		COc1ccc2sc3c(c2c1)CCN(c1nc2c(c(NC4(CO)CCC4)n1)[S+]([O-])CC2)C3 (centres unmarked) [Compound 82]
0.19 nM	0.385 nM				14.99%	65.79%	97.23%		[O-][S+]1CCc2nc(N3CCc4cc(-n5ccnc5)ccc4C3)nc(NC3(CO)CCC3)c21 (centres unmarked) [Compound 90]
1.24 nM	3.14 nM				4.18%	43.68%	96.53%		COc1nc2c(c3ccc(Cl)cc13)CCN(c1nc3c(c(NC4(CO)CCC4)n1)[S+]([O-])CC3)C2 (centres unmarked) [Compound 99]
1.14 nM	2.95 nM				2.82%	52.48%	98.12%		[O-][S+]1CCc2nc(N3CC[C@@H]4c5cccc(Cl)c5OC[C@H]4C3)nc(NC3(CO)CCC3)c21 (some centres unmarked) [Compound 107]
2.12 nM	4.75 nM					42.65%	85.82%		[O-][S+]1CCc2nc(N3Cc4ccc(Br)cc4C3)nc(NC3(CO)CCC3)c21 (centres unmarked) [Compound 59]
0.24 nM	0.481 nM				8.69%	63.13%	97.77%		CN1CCN(c2ccc3c(c2)CCN(c2nc4c(c(NC5(CO)CCC5)n2)[S+]([O-])CC4)C3)C1=O (centres unmarked) [Compound 86]
2.71 nM	7.25 nM							29.6 nM	[O-][S@+]1CCc2nc(N3CCc4nn5cc(Cl)cnc5c4C3)nc(NC3(CO)CCC3)c21 [Compound 4]
0.92 nM	2.19 nM							23.7 nM	[O-][S+]1CCc2nc(N3CCc4cc(Cl)cc(Cl)c4C3)nc(NC3(CO)CCC3)c21 (centres unmarked) [Compound 25]
0.201 nM	0.405 nM				23.54%	74.22%	97.65%		[O-][S+]1CCc2nc(N3CCc4c(nn5cc(F)ccc45)C3)nc(NC3(CO)CCC3)c21 (centres unmarked) [Compound 32]
0.085 nM	0.157 nM				41.7%	97.0%	101.1%		[O-][S+]1CCc2nc(N3CCc4cc(-c5cnco5)ccc4C3)nc(NC3(CO)CCC3)c21 (centres unmarked) [Compound 85]
0.0712 nM	0.125 nM				34.83%	94.09%	100.44%		Cn1cnc(-c2ccc3c(c2)CCN(c2nc4c(c(NC5(CO)CCC5)n2)[S+]([O-])CC4)C3)n1 (centres unmarked) [Compound 94]
5.43 nM	18.1 nM				-0.97%	6.68%	25.39%		O=C(O)Cc1ccc(Nc2nc(N3CCc4cc(Cl)ccc4C3)nc3c2[S@@+]([O-])CC3)cc1 [Compound 128]
0.142 nM	0.233 nM				19.25%	86.01%	99.96%		[O-][S+]1CCc2nc(N3CCc4cc(-n5cccn5)ccc4C3)nc(NC3(CO)CCC3)c21 (centres unmarked) [Compound 91]
0.55 nM	0.88 nM							8.11 nM	O=[N+]([O-])c1ccc2c(c1)CCN(c1nc3c(c(NC4(CO)CCC4)n1)[S+]([O-])CC3)C2 (centres unmarked) [Compound 27]
0.705 nM	1.63 nM				3.47%	37.42%	95.32%		[O-][S+]1CCc2nc(N3CCc4cc(N5CC(F)C5)ccc4C3)nc(NC3(CO)CCC3)c21 (centres unmarked) [Compound 89]
0.889 nM	2.04 nM				-1.71%	46.69%	95.76%		Cn1c2c(c3ccc(Cl)cc3c1=O)CCN(c1nc3c(c(NC4(CO)CCC4)n1)[S+]([O-])CC3)C2 (centres unmarked) [Compound 98]

Compound	IC50 (PDE4B2 [1])	IC50 (PDE4D2)	inhibition at 0.001 µM (PDE4B2 [2]; 1 nM)	inhibition at 0.01 µM (PDE4B2 [2]; 10 nM)	inhibition at 0.1 µM (PDE4B2 [2]; 100 nM)	Cell Inhibition% @1 nM (PDE4B2 [2]; 1 nM)	Cell Inhibition% @10 nM (PDE4B2 [2]; 10 nM)	Cell Inhibition% @100 nM (PDE4B2 [2]; 100 nM)	IC50 (PDE4B2 [2])
[O-][S+]1CCc2nc(N3CC[C@H]4c5ccc(Cl)cc5OC[C@H]4C3)nc(NC3(CO)CCC3)c21 (some centres unmarked) [Compound 116]	3.01 nM	12.4 nM				2.17%	16.91%	73.36%	
[O-][S+]1CCc2nc(N3Cc4nn5cc(Cl)cnc5c4C3)nc(NC3(CO)CCC3)c21 (centres unmarked) [Compound 2]	19.3 nM	60.1 nM							418 nM
[O-][S+]1CCc2nc(N3CCc4cc(Cl)ncc4C3)nc(NC3(CO)CCC3)c21 (centres unmarked) [Compound 78]	1.82 nM	4.02 nM				2.20%	32.09%	86.33%	
[O-][S@+]1CCc2nc(N3CCn4c(nc5ccc(Cl)cc54)C3)nc(NC3(CO)CCC3)c21 [Compound 6, (R)-2-(7-chloro-3,4-dihydrobenzo[4,5]imidazo[1,2-a]pyrazin-2(1H)-yl)-4-((1-(hydroxymethyl)cyclobutyl)amino)-6,7-dihydrothieno[3,2-d]pyrimidine 5-oxide]	0.41 nM	0.473 nM							8.2 nM
